# Measurements: patent publication US6242442A (Alcon Laboratories, Inc., priority 2000, dated 2001)
# Read-outs that look alike come from different tables or passages of the source.
# Columns and labels:
# [1] = test system: scleral vessels; vessels in the back of the eye; settings: topical ocular administration; cited from earlier work
# [2] = topical, some patients; cited from earlier work
# α2 = settings: cited from earlier work
# IOP = settings: rabbits, monkeys and man; cited from earlier work
# [3] = Distribution coefficient (octanol/water determined at pH 7.4); type: physicochemical
# optic nerve head (ONH) [4] = experiment: Optic nerve head blood flow by LDF, one-week multidose topical crossover study in rabbits; type: in vivo, Dutch-Belted rabbits; settings: 2% suspension topical, one drop twice daily, 90 minutes after last dose, mean±SEM, p<0.05
# Experimental: (§1) Treatment measurements were made 90 minutes after the last dose on day eight. Optic nerve head blood flow and measured systemic variables were not changed by vehicle treatment. […] It is established that the vasculature of the ONH responds to increases in arterial O2 or CO2 tension by a reduction or an enhancement of ONH blood flow respectively.
# optic nerve head = experiment: Optic nerve head blood flow by LDF in anesthetized rabbits, intravenous; type: in vivo, New Zealand albino rabbits; settings: intravenous 0.5, 2.5, and 5 mg/kg
# Source text: (§2) In this experiment it was also possible to compare blood flows of the normal eye to the contralateral eye that was mildly hypofused due to unilateral carotid occlusion.
# retina [5] = experiment: Tissue distribution after single topical ocular dose of 14C-brinzolamide, Dutch belted rabbits; type: in vivo
# [6] = Acid-base balance and arterial gases, one-week multidose topical crossover study in rabbits; type: in vivo, Dutch-Belted rabbits; settings: 2% suspension topical, one drop twice daily
# Experimental: as §1
# optic nerve head (ONH) [7] = experiment: Optic nerve head blood flow by laser Doppler flowmetry in cats; type: in vivo, cat
# ocular tissues = experiment: Ocular blood flow by colored microsphere technique in anesthetized rabbits, intravenous; type: in vivo, New Zealand albino rabbits; settings: for increase in total ocular blood flow, hypofused eyes: unilateral carotid occlusion
# Source text: as §2
# intraocular pressure = settings: ocular hypertension and glaucoma; cited from earlier work
# [8] = test system: intraocular pressure (IOP); experiment: Intraocular pressure, one-week multidose topical crossover study in rabbits; type: in vivo, Dutch-Belted rabbits; settings: 2% suspension topical, one drop twice daily, 90 minutes after last dose, p<0.05 versus vehicle, p<0.001 versus baseline
# Experimental: as §1
# retina [9] = experiment: Tissue distribution after single topical ocular dose of 14C-brinzolamide, NZW rabbits; type: in vivo, New Zealand Albino (NZW) rabbits
# [10] = in words; cited from earlier work
# [11] = test system: ocular and cerebral blood flow; settings: oral and i.v. administration, relatively high dosages; cited from earlier work
# ocular blood flow [12] = settings: cited from earlier work
# ocular blood flow [13] = settings: cited from earlier work; remark: listed apart in the source
# [14] = test system: blood flow to the iris, ciliary processes, optic nerve, or retina; settings: topical, rabbits; Sugrue et al. 1996; cited from earlier work
# [15] = octanol/water, pH 7.4; in words; cited from earlier work
# [16] = read-out: distribution coefficient (converted)
# [17] = retina, single topical ocular dose of 1% 14C-brinzolamide
smiles,measurement,setting,value
"Brc1c(NC2=NCCN2)ccc2nccnc12 [brimonidine, (5-bromo-6-2-imidzolidisnylideneamino) quinozoline L-tartrate]",vasoconstriction in scleral vessels,[1],causes vasoconstriction in scieral vessels
same,vasoconstriction in vessels in the back of the eye,[1],does not appear to be a vasoconstrictor in vessels in the back of the eye
same,side effects,[2],sedation and ocular hyperemia in an allergic like reaction in some patients
same,α2 agonist activity and selectivity,α2,potent and relatively selective α2 agonist
same,lowering of IOP,IOP,"effectively lower IOP in rabbits, monkeys and man"
"CCN[C@H]1CN(CCCOC)S(=O)(=O)c2sc(S(N)(=O)=O)cc21 [brinzolamide, R-(+)-4ethylamino-3,4-dihydro-2-(3-methoxy)propyl-2H thieno[3,2,e]1,2thiazene-6sulfonamide-1,1dioxide]",logD,[3]; [16],0.817
same,increase in ONH blood flow,optic nerve head (ONH) [4],11.2±1.6%
same,optic nerve head blood flow,optic nerve head,increased above baseline
same,Cmax,retina [5]; [17],0.338 ?g equivalents/g
same,redistribution into the retina,retina [5]; topical ocular,slowly redistribute into the retina
same,disturbance of acid-base balance,[6],Minimal disturbance of acid-base balance
same,increase in ONH blood flow over control group,"optic nerve head (ONH) [7]; 1% topical, one drop twice a day, one week, spontaneously breathing cats, average of two measurements",21.8%
same,increase in ONH blood flow,"optic nerve head (ONH) [7]; 60 minutes following single topical dose, anesthetized ventilated cats",16.5%±8%
same,increase in ONH blood flow,"optic nerve head (ONH) [7]; intravenous, p≤0.05",46±17%
same,regional blood flows to the hypofused eye,ocular tissues; highest intravenous dose,returned regional blood flows to the hypofused eye to baseline levels found in the normal eye
same,"tissues with greatest percentage blood flow increase, hypofused eye",ocular tissues; intravenous,"greatest to iridial, ciliary, and choroidal tissues, respectively"
same,"increase in total ocular blood flow, normal eyes",ocular tissues; intravenous 0.5 mg/kg,29%
same,"increase in total ocular blood flow, hypofused eyes",ocular tissues; intravenous 0.5 mg/kg,21%
same,"increase in total ocular blood flow, normal eyes",ocular tissues; intravenous 2.5 mg/kg,68%
same,"increase in total ocular blood flow, hypofused eyes",ocular tissues; intravenous 2.5 mg/kg,64%
same,"increase in total ocular blood flow, normal eyes",ocular tissues; intravenous 5 mg/kg,90%
same,"increase in total ocular blood flow, hypofused eyes",ocular tissues; intravenous 5 mg/kg,90%
same,total ocular blood flow,"ocular tissues; intravenous 0.5, 2.5, and 5 mg/kg",significant dose-related increase
same,lowering of elevated intraocular pressure,intraocular pressure,effective in lowering the elevated intraocular pressure
same,decrease of IOP,[8],16.8±2.2%
same,Cmax,retina [9]; [17],0.330 ?g equivalents/g
same,Tmax in the retina,retina [9]; single topical ocular dose of 1% 14C-brinzolamide,20 days
same,redistribution into the retina,retina [9]; topical ocular,slowly redistribute into the retina
CC(=O)Nc1nnc(S(N)(=O)=O)s1 [acetazolamide],half-life in whole blood,[10],relatively short half-lives in whole blood
same,ocular and cerebral blood flow,[11],increase both ocular and cerebral blood flow
CCN[C@H]1C[C@H](C)S(=O)(=O)c2sc(S(N)(=O)=O)cc21 [dorzolamide],logD,[3]; [16],0.236
same,artereovenous passage time,"ocular blood flow [12]; healthy subjects, WO 96/37203",accelerated artereovenous passage time
same,optic nerve head velocity,"ocular blood flow [12]; healthy subjects, WO 96/37203",increase in optic nerve head velocity
same,retinal vein blood flow,"ocular blood flow [12]; normal volunteers, Gruenwald et al. 1997",no effect on retinal vein blood flow
same,optic nerve head blood flow,"ocular blood flow [12]; topical, healthy subjects, Pillunat et al. 1997",did not alter optic nerve head blood flow
same,blood velocity in the retina and superficial optic nerve head,ocular blood flow [13]; Harris et al. 1996,accelerated blood velocity in the retina and superficial optic nerve head
same,choroidal pressure flow relationships,ocular blood flow [13]; Shipman et al. 1997,did not alter the choroidal pressure flow relationships
same,peripapillary blood flow,"ocular blood flow [13]; topical, Koller et al. 1997",did not change peripapillary blood flow
same,ocular blood flow,"ocular blood flow [13]; topical, Sponsel 1996, 1997",positive effect on ocular blood flow
same,"blood flow to the iris, ciliary processes, optic nerve, or retina",[14],does not decrease blood flow
CC(=O)/N=c1/sc(S(N)(=O)=O)nn1C [methazolamide],logD,[3],-0.194
same,distribution coefficient,[15],low distribution coefficients
same,half-life in whole blood,[10],relatively short half-lives in whole blood
same,ocular and cerebral blood flow,[11],increase both ocular and cerebral blood flow
